Peptide text beside a SMILES is read from it.
Key:
[1] = tested on: C. albicans strains WO-1 and Sc 5314; experiment: Microdilution antifungal assay, summary for C. albicans; format: cell-based, Candida albicans; conditions: for Anticandidal activity against the yeast form of growing C. albicans: strains WO-1 and Sc 5314, LSM medium, microdilution plate assay
Protocol: (§1) The antifungal activity of the NCR peptides against C. albicans strains and other Candida species was determined in vitro using 96-well flat bottom microtiter plates (Sarstedt). Fifty microliters of dilutions from each peptide (final concentrations in the assays ranged from 2.5 to 100 μg/mL) was added to 50 μL of 10^4 cells mL^−1 and 10^5 cells mL^−1 in LSM. The plates were incubated at 30°C and the peptide concentrations that prevented the germination of yeast cells were determined by microscopic analysis and measurement of absorbance at 600 nm with a microtiter plate reader (FLUOstar OPTIMA; BMG Labtech) after 24 and 48 hours. Minimal inhibitory concentration (MIC) was determined as the lowest concentration of the peptide at which there was no visible and measurable growth after 24 hours of incubation. To determine whether the antifungal effect was fungistatic or fungicidal, 10 μL from each treatment was dropped onto solid YPD plate after 3 and 24 hours. Plates were incubated at 30°C for 48 hours and developing colonies were observed. Minimal fungicidal concentration (MFC) was defined where no fungal growth could be observed.

C. albicans WO-1 = format: cell-based, Candida albicans; conditions: for Minimal fungicidal concentration, 3 h: WO-1, 3 h; for Minimal fungicidal concentration, 24 h: WO-1, 24 h
Protocol: as §1

Structure (SMILES) | Anticandidal activity against the yeast form of growing C. albicans [1] | Minimal fungicidal concentration, 3 h (C. albicans WO-1) | Minimal fungicidal concentration, 24 h (C. albicans WO-1) | MIC ([1]; Candida albicans, SC5314, comparator value given in text, strain, method and source not given, read-out: MIC of amphotericin B) | MIC of amphotericin B ([1]; comparator value given in text, strain, method and source not given)
CC[C@H](C)[C@H](NC(=O)[C@H](Cc1ccc(O)cc1)NC(=O)[C@H](CC(N)=O)NC(=O)[C@H](CCCNC(=N)N)NC(=O)[C@@H](NC(=O)[C@H](CCC(N)=O)NC(=O)[C@H](CCCNC(=N)N)NC(=O)[C@H](CS)NC(=O)[C@H](CC(=O)O)NC(=O)[C@H](CCCCN)NC(=O)[C@H](CC(N)=O)NC(=O)[C@@H](NC(=O)[C@@H](NC(=O)[C@H](CS)NC(=O)[C@H](CC(N)=O)NC(=O)[C@H](CCCNC(=N)N)NC(=O)[C@H](CO)NC(=O)[C@@H](NC(=O)[C@@H]1CCCN1C(=O)[C@H](CC(C)C)NC(=O)[C@H](Cc1ccccc1)NC(=O)[C@H](C)N)[C@@H](C)O)[C@@H](C)CC)[C@@H](C)O)C(C)C)C(=O)N[C@@H](C)C(=O)N[C@@H](CCCNC(=N)N)C(=O)N[C@@H](CS)C(=O)N[C@@H](CCCNC(=N)N)C(=O)N[C@@H](CCCCN)C(=O)NCC(=O)N[C@@H](CCC(N)=O)C(=O)N[C@@H](CS)C(=O)N[C@@H](CC(C)C)C(=O)N[C@@H](CCC(N)=O)C(=O)N[C@@H](CO)C(=O)N1CCC[C@H]1C(=O)N[C@H](C(=O)N[C@@H](CCCNC(=N)N)C(=O)O)C(C)C [NCR030] (H-AFLPTSRNCITNKDCRQVRNYIARCRKGQCLQSPVR-OH; N-terminus and C-terminus assumed) | exhibited anticandidal activity | 12.5 (±2) μg/mL | 16.5 (±5) μg/mL | – | –
CC[C@H](C)[C@H](NC(=O)[C@H](CCCNC(=N)N)NC(=O)[C@H](CCCNC(=N)N)NC(=O)[C@H](CCCNC(=N)N)NC(=O)[C@@H](NC(=O)[C@H](CS)NC(=O)[C@H](Cc1ccc(O)cc1)NC(=O)CNC(=O)[C@H](CCCCN)NC(=O)[C@H](CCCNC(=N)N)NC(=O)[C@H](CS)NC(=O)[C@H](CCCNC(=N)N)NC(=O)[C@H](C)NC(=O)[C@H](CCCNC(=N)N)NC(=O)[C@H](Cc1ccc(O)cc1)NC(=O)[C@H](CC(N)=O)NC(=O)[C@H](CCCCN)NC(=O)[C@@H](NC(=O)[C@@H](NC(=O)[C@H](CO)NC(=O)[C@H](CS)NC(=O)[C@H](CCC(=O)O)NC(=O)[C@H](CCCCN)NC(=O)[C@H](CC(=O)O)NC(=O)[C@H](CO)NC(=O)[C@@H](NC(=O)[C@H](CS)NC(=O)[C@@H]1CCCN1C(=O)[C@H](CCCCN)NC(=O)[C@H](CO)NC(=O)[C@H](CC(C)C)NC(=O)[C@H](CCC(N)=O)NC(=O)[C@@H](NC(=O)[C@H](Cc1ccccc1)NC(=O)[C@H](C)N)[C@@H](C)CC)[C@@H](C)CC)[C@@H](C)CC)C(C)C)C(C)C)C(=O)N[C@@H](CCCNC(=N)N)C(=O)O [NCR044] (H-AFIQLSKPCISDKECSIVKNYRARCRKGYCVRRRIR-OH; N-terminus and C-terminus assumed) | exhibited anticandidal activity | 11 (±2) μg/mL | 6.25 (±1) μg/mL | – | –
CSCC[C@H](NC(=O)[C@H](Cc1ccccc1)NC(=O)[C@H](CCCCN)NC(=O)[C@@H]1CCCN1C(=O)[C@H](CS)NC(=O)[C@H](CCCNC(=N)N)NC(=O)CNC(=O)[C@H](CC(=O)O)NC(=O)[C@H](CCCNC(=N)N)NC(=O)CNC(=O)[C@H](CS)NC(=O)[C@H](CC(C)C)NC(=O)[C@@H](NC(=O)[C@H](CCCNC(=N)N)NC(=O)[C@@H](N)CCSC)C(C)C)C(=O)N[C@@H](CS)C(=O)N[C@@H](CCCNC(=N)N)C(=O)N[C@H](C(=O)N[C@@H](Cc1ccccc1)C(=O)N[C@@H](CC(C)C)C(=O)O)[C@@H](C)O [NCR280] (H-MRVLCGRDGRCPKFMCRTFL-OH) | – | 10 (±2) μg/mL | 8 (±3) μg/mL | – | –
C[C@@H]1[C@H](O)[C@@H](C)/C=C/C=C/C=C/C=C/C=C/C=C/C=C/[C@H](O[C@@H]2O[C@H](C)[C@@H](O)[C@H](N)[C@@H]2O)C[C@@H]2O[C@](O)(C[C@@H](O)C[C@@H](O)[C@H](O)CC[C@@H](O)C[C@@H](O)CC(=O)O[C@H]1C)C[C@H](O)[C@H]2C(=O)O [amphotericin B, reference compound] | – | – | – | 1.69 µM | ~ 1.7 μM

From paper PMC4163382, “Symbiotic Plant Peptides Eliminate Candida albicans Both In Vitro and in an Epithelial Infection Model and Inhibit the Proliferation of Immortalized Human Cells” (BioMed Research International, 2014)
